Experimental data as given in paper PMC8892251, “An Enhanced Hybrid Screening Approach to Identify Potent Inhibitors for the SARS-CoV-2 Main Protease From the NCI Compound Library” (Frontiers in Chemistry, 2022).
Values joined by “and” are separate entries in the source; they are usually repeats but may differ in a detail not shown here. Equal values may be shown once. Read-outs that look alike come from different tables or passages of the source.

Assays:
SARS-CoV-2 Mpro = SARS-CoV-2 Mpro (Severe acute respiratory syndrome coronavirus 2, UniProt P0DTD1); assay: biochemical
PLpro = PLpro (Severe acute respiratory syndrome coronavirus 2, UniProt P0DTD1); assay: IC50 test against PLpro (selectivity check for quinones); format: biochemical, SARS-CoV-2; details: Supplementary Figure S4; for specificity of Mpro inhibition: conclusion from PLpro counter-test; for selectivity Mpro versus PLpro: quinones tested on PLpro

Row | SMILES | IC50 (SARS-CoV-2 Mpro; IC50) | specificity of Mpro inhibition (PLpro) | selectivity Mpro versus PLpro (PLpro) | IC50 (SARS-CoV-2 Mpro; Mpro, Figure 5, triplicate experiments, read-out: IC50) [nM] | IC50 (SARS-CoV-2 Mpro; Mpro, read-out: IC50) [nM]
1 | CC1=C(N=[N+]=[N-])C(=O)C(C)=C(N=[N+]=[N-])C1=O [Compound 88] | 723 nM | specifically inhibit the activity of Mpro | more selective on Mpro than PLpro |  | 
2 | O=C1C=CC(=O)c2c1ncc1c2nc2sccn21 [Compound 110] |  | specifically inhibit the activity of Mpro | more selective on Mpro than PLpro | 705 | 705
3 | O=C1C=C/C(=N\c2nc3c4ccccc4c4ccccc4c3[nH]2)c2ccccc21 [Compound 112] | 1690 nM and 1700 nM |  | more selective on Mpro than PLpro |  | 
